Data from publication PMC12134183, “Structural analysis of full-length human transmembrane protein 94 argues against its classification as a P-type Mg^2+ ATPase” (Cell Discovery, 2025).

Target: T1, TMEM94 (Homo sapiens, UniProt Q12767)
T1 construct: full-length, purified in detergent micelles; TMD extends to residue 1356; N-glycosylated
T1 sequence (Q12767 1-1356): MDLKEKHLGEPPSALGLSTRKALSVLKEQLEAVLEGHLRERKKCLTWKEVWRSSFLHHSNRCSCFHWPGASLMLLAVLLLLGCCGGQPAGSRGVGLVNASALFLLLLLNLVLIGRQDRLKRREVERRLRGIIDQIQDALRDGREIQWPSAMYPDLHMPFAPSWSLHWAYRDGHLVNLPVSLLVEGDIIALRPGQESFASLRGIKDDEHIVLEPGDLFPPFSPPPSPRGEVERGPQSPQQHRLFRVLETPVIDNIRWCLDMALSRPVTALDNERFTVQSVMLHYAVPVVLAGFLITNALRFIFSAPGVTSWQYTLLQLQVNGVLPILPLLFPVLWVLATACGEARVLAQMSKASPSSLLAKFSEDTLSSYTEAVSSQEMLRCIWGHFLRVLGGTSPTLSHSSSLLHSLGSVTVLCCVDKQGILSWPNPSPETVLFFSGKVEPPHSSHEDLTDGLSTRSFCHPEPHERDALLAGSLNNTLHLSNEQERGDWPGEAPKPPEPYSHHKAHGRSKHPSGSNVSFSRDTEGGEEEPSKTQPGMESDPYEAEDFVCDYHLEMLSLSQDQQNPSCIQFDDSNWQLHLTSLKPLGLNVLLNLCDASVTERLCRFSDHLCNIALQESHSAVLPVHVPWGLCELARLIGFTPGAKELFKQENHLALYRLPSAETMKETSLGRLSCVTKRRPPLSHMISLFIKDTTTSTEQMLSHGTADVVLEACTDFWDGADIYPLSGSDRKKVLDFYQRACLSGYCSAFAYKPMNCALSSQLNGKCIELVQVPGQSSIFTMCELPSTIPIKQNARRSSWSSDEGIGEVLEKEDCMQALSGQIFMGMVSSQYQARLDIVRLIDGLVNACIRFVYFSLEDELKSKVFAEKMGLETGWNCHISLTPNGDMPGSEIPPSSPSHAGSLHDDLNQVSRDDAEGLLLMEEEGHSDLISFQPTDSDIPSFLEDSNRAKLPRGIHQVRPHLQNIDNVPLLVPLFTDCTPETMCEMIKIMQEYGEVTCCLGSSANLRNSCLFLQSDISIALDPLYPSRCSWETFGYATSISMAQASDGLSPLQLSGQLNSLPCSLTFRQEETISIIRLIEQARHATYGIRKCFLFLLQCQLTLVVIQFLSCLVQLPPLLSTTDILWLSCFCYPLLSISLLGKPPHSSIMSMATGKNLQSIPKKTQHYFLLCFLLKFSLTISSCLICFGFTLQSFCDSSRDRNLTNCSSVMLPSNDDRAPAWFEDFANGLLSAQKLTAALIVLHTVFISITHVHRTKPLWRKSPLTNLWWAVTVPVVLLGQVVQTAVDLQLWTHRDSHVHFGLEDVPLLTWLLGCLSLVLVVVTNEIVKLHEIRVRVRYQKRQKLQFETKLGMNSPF
Assay: microscale thermophoresis (MST)
Type: binding

For `Nc1ncnc2c1ncn2[C@@H]1O[C@H](COP(=O)(O)OP(=O)(O)CP(=O)(O)O)[C@@H](O)[C@H]1O` [AMPPCP], the Kd was 5.48 ± 1.41 µM.
